Data reported in patent publication US7405038B1, “Stable cell lines resistant to apoptosis and nutrient stress and methods of making same” (Boyce Thompson Institute for Plant Research, Inc., priority 2000, dated 2008).
Numbered stars: 1 amine (or outer) side, 2 acyl side, 3 side chain; on linkers, the order of the positions; unused ones are H or OH. Bridge positions count the residues as written; N and C are the ends. Square brackets hold non-standard residues; d marks the D form. Peptide text beside a SMILES is read from it. I, II: the chains in the order shown. Actinocin(9to1) = Cc1c2oc3c(C)ccc(C(=O)[*:1])c3nc-2c(C(=O)[*:2])c(N)c1=O; NMeV = CN[C@H](C(=O)O)C(C)C; Sar = CNCC(=O)O

How the values were obtained:
Sf9P35AcV5-1 cells = experiment: Resistance to induction of apoptosis by actinomycin D: cell survival; format: cell-based, Spodoptera frugiperda
Experimental: (§1) The cells were examined for resistance to induction of apoptosis by actinomycin D, as well as survival under conditions of nutrient deprivation. Sf9 cells or stably transfected lines Sf9^P35AcV5−1 and Sf9^P35AcV5−3 were incubated in medium containing 0.1 μg/ml actinomycin D for 1 hour, then placed in TNMFH medium.
(§2) Increasing doses of actinomycin D were tested to further examine the degree of resistance to this inducer of apoptosis. Sf9 or stably transfected cells expressing P35 were incubated in a range of concentrations of actinomycin D (0.01 to 0.5 μg/ml) for one hour, then placed in TNMFH and scored for cell survival after 1-4 days (Table 2).

Sf9 cells = experiment: as above; format: cell-based, Spodoptera frugiperda
Experimental: as §1, §2

[1] = 0.01 μg/ml actinomycin D for one hour, Day 1
[2] = 0.01 μg/ml actinomycin D for one hour, Day 2
[3] = 0.01 μg/ml actinomycin D for one hour, Day 3
[4] = 0.01 μg/ml actinomycin D for one hour, Day 4
[5] = 0.025 μg/ml actinomycin D for one hour, Day 1
[6] = 0.025 μg/ml actinomycin D for one hour, Day 2
[7] = 0.025 μg/ml actinomycin D for one hour, Day 3
[8] = 0.025 μg/ml actinomycin D for one hour, Day 4
[9] = 0.05 μg/ml actinomycin D for one hour, Day 1
[10] = 0.05 μg/ml actinomycin D for one hour, Day 2
[11] = 0.05 μg/ml actinomycin D for one hour, Day 3
[12] = 0.05 μg/ml actinomycin D for one hour, Day 4
[13] = 0.075 μg/ml actinomycin D for one hour, Day 1
[14] = 0.075 μg/ml actinomycin D for one hour, Day 2
[15] = 0.075 μg/ml actinomycin D for one hour, Day 3
[16] = 0.075 μg/ml actinomycin D for one hour, Day 4

Cc1c2oc3c(C)ccc(C(=O)N[C@@H]4C(=O)N[C@H](C(C)C)C(=O)N5CCC[C@H]5C(=O)N(C)CC(=O)N(C)[C@@H](C(C)C)C(=O)O[C@@H]4C)c3nc-2c(C(=O)N[C@@H]2C(=O)N[C@H](C(C)C)C(=O)N3CCC[C@H]3C(=O)N(C)CC(=O)N(C)[C@@H](C(C)C)C(=O)O[C@@H]2C)c(N)c1=O [Actinomycin D, actinomycin D] (I: T[dV]P[Sar][NMeV] / II: T[dV]P[Sar][NMeV]; ester I:1-I:C, II:1-II:C; linker I:N-II:N via Actinocin(9to1))
Sf9P35AcV5-1 Cell Survival (Percentage) (Sf9P35AcV5-1 cells; [1]): 100 Percentage
Sf9P35AcV5-1 Cell Survival (Percentage) (Sf9P35AcV5-1 cells; [2]): 100 Percentage
Sf9P35AcV5-1 Cell Survival (Percentage) (Sf9P35AcV5-1 cells; [3]): 100 Percentage
Sf9P35AcV5-1 Cell Survival (Percentage) (Sf9P35AcV5-1 cells; [4]): 100 Percentage
Sf9P35AcV5-1 Cell Survival (Percentage) (Sf9P35AcV5-1 cells; [5]): 100 Percentage
Sf9P35AcV5-1 Cell Survival (Percentage) (Sf9P35AcV5-1 cells; [6]): 100 Percentage
Sf9P35AcV5-1 Cell Survival (Percentage) (Sf9P35AcV5-1 cells; [7]): 100 Percentage
Sf9P35AcV5-1 Cell Survival (Percentage) (Sf9P35AcV5-1 cells; [8]): 100 Percentage
Sf9P35AcV5-1 Cell Survival (Percentage) (Sf9P35AcV5-1 cells; [9]): 100 Percentage
Sf9P35AcV5-1 Cell Survival (Percentage) (Sf9P35AcV5-1 cells; [10]): 100 Percentage
Sf9P35AcV5-1 Cell Survival (Percentage) (Sf9P35AcV5-1 cells; [11]): 100 Percentage
Sf9P35AcV5-1 Cell Survival (Percentage) (Sf9P35AcV5-1 cells; [12]): 100 Percentage
Sf9P35AcV5-1 Cell Survival (Percentage) (Sf9P35AcV5-1 cells; [13]): 100 Percentage
Sf9P35AcV5-1 Cell Survival (Percentage) (Sf9P35AcV5-1 cells; [14]): 100 Percentage
Sf9P35AcV5-1 Cell Survival (Percentage) (Sf9P35AcV5-1 cells; [15]): 100 Percentage
Sf9P35AcV5-1 Cell Survival (Percentage) (Sf9P35AcV5-1 cells; [16]): 100 Percentage
survival of Sf9P35AcV5-1 cells (Sf9P35AcV5-1 cells; 0.1 μg/ml actinomycin D for 1 hour, then TNMFH medium, after three days): survived
Sf9P35AcV5-1 Cell Survival (Percentage) (Sf9P35AcV5-1 cells; 0.1 μg/ml actinomycin D for one hour, Day 1): 100 Percentage
Sf9P35AcV5-1 Cell Survival (Percentage) (Sf9P35AcV5-1 cells; 0.1 μg/ml actinomycin D for one hour, Day 2): 100 Percentage
Sf9P35AcV5-1 Cell Survival (Percentage) (Sf9P35AcV5-1 cells; 0.1 μg/ml actinomycin D for one hour, Day 3): 100 Percentage
Sf9P35AcV5-1 Cell Survival (Percentage) (Sf9P35AcV5-1 cells; 0.1 μg/ml actinomycin D for one hour, Day 4): 100 Percentage
survival of stably transfected line (Sf9P35AcV5-1 cells; 0.25 μg/ml actinomycin D): 100%
Sf9P35AcV5-1 Cell Survival (Percentage) (Sf9P35AcV5-1 cells; 0.25 μg/ml actinomycin D for one hour, Day 1): 100 Percentage
Sf9P35AcV5-1 Cell Survival (Percentage) (Sf9P35AcV5-1 cells; 0.25 μg/ml actinomycin D for one hour, Day 2): 100 Percentage
Sf9P35AcV5-1 Cell Survival (Percentage) (Sf9P35AcV5-1 cells; 0.25 μg/ml actinomycin D for one hour, Day 3): 100 Percentage
Sf9P35AcV5-1 Cell Survival (Percentage) (Sf9P35AcV5-1 cells; 0.25 μg/ml actinomycin D for one hour, Day 4): 100 Percentage
survival of stably transfected line (Sf9P35AcV5-1 cells; 0.5 μg/ml actinomycin D): ≤ 10%
Sf9P35AcV5-1 Cell Survival (Percentage) (Sf9P35AcV5-1 cells; 0.5 μg/ml actinomycin D for one hour, Day 1): 8.5 Percentage
Sf9P35AcV5-1 Cell Survival (Percentage) (Sf9P35AcV5-1 cells; 0.5 μg/ml actinomycin D for one hour, Day 2): 5.7 Percentage
Sf9P35AcV5-1 Cell Survival (Percentage) (Sf9P35AcV5-1 cells; 0.5 μg/ml actinomycin D for one hour, Day 3): 1.5 Percentage
Sf9P35AcV5-1 Cell Survival (Percentage) (Sf9P35AcV5-1 cells; 0.5 μg/ml actinomycin D for one hour, Day 4): 0 Percentage
resistance to actinomycin D as an inducer of apoptosis (Sf9P35AcV5-1 cells; relative to Sf9 cells): ≥ 2 fold
Sf9 Cell Survival (Percentage) (Sf9 cells; [1]): 100 Percentage
Sf9 Cell Survival (Percentage) (Sf9 cells; [2]): 100 Percentage
Sf9 Cell Survival (Percentage) (Sf9 cells; [3]): 100 Percentage
Sf9 Cell Survival (Percentage) (Sf9 cells; [4]): 100 Percentage
Sf9 Cell Survival (Percentage) (Sf9 cells; [5]): 100 Percentage
Sf9 Cell Survival (Percentage) (Sf9 cells; [6]): 100 Percentage
Sf9 Cell Survival (Percentage) (Sf9 cells; [7]): 100 Percentage
Sf9 Cell Survival (Percentage) (Sf9 cells; [8]): 100 Percentage
Sf9 Cell Survival (Percentage) (Sf9 cells; [9]): 100 Percentage
Sf9 Cell Survival (Percentage) (Sf9 cells; [10]): 100 Percentage
Sf9 Cell Survival (Percentage) (Sf9 cells; [11]): 100 Percentage
Sf9 Cell Survival (Percentage) (Sf9 cells; [12]): 100 Percentage
survival of Sf9 cells (Sf9 cells; 0.075 μg/ml actinomycin D): 80-95%
Sf9 Cell Survival (Percentage) (Sf9 cells; [13]): 95 Percentage
Sf9 Cell Survival (Percentage) (Sf9 cells; [14]): 90 Percentage
Sf9 Cell Survival (Percentage) (Sf9 cells; [15]): 83 Percentage
Sf9 Cell Survival (Percentage) (Sf9 cells; [16]): 83 Percentage
